Assay [1] concerns the target BN/GRP receptor on U-87MG tumour membranes. Description: Displacement of 125I-[Tyr4]BN binding (radioreceptor assay) on U-87MG tumour membranes. Details: species or system human. The method, then: (§1) Binding characteristics of BN receptors on membrane preparations from U-87MG tumours were determined by ligand competition assays using ^125I-labelled [Tyr^4]BN, as reported earlier ([Halmos and Schally, 1997]). […] IC50 value was calculated with a computerized curve fitting programme and is defined as the concentration of AN-215 causing a 50% inhibition of ^125I-[Tyr^4]BN binding.
(In general: Displacement assays read how much labelled ligand stays bound in the presence of the test substance.)

For assay [2], the system named is BN receptors on membrane preparations from U-87MG tumours. The experiment in a line: 125I-[Tyr4]BN binding characteristics (Kd, Bmax) of BN receptors on U-87MG tumour membranes. Further details: species or system human. The note with it: AN-215-treated vs control. The method, then: as §1
In assay [3] the test system is U-87MG human glioblastoma xenografted into nude mice. Description: Experiment 2: growth of s.c. U-87MG xenografts, with BN receptor blockade. The class given is in vivo, human tumour in male athymic nude mice. The procedure:
Human glioblastoma cell line U-87MG was obtained from American Type Culture Collection (Manassas, VA, USA) and cultured as described ([Pinski et al, 1994]). Male athymic (Ncr nu/nu) nude mice, approximately 6-weeks-old on arrival, were obtained from the National Cancer Institute (Frederick Cancer Research and Development Center, Frederick, MD, USA), and housed in laminar air-flow cabinets under pathogen-free conditions with a 12 h light/12 h dark schedule, and fed autoclaved standard chow and water ad libitum. Xenografts were initiated by s.c. injection of 12×10^6 U-87MG cells into the right flanks of five male nude mice. Tumours resulting after 2 weeks were aseptically dissected, mechanically minced, and 3-mm^3 pieces of tumour tissue were transplanted s.c. with a trocar needle. The take rate was 100%. All experiments were performed in accordance with institutional ethical guidelines of animal care and were essentially in agreement with [UKCCCR guidelines (1998)] for the welfare of animals in experimental neoplasia.
Experiment 2 was started when U-87MG tumours had grown to 70–84 mm^3 in volume. The animals were divided into the following treatment groups: group 1 (10 mice), control, vehicle solution; group 2 (10 mice), analogue AN-215; group 3 (five mice), unconjugated mixture of the cytotoxic radical AN-201 and BN antagonist RC-3095. All compounds were injected i.v. at 150 nmol kg^−1 of BW on days 1, 10, and 17. In addition, one group of tumour-bearing mice received an i.v. injection of 200 μg of BN antagonist RC-3095 15 min before each administration of AN-215 at a dose of 150 nmol kg^−1 of BW on days 1, 10 and 17 as in the case of group 2. The experiment was terminated on day 20 as described above.
Data are expressed as mean±s.e. Differences between mean values were evaluated by two-tailed Student's t-test, P<0.05 being considered significant.
A general note: Xenograft models place foreign cells or tissue in a host animal.

The subject of assay [4] is BN receptors on Swiss 3T3 fibroblasts. The note with it: ref Nagy et al, 1997; cited from earlier work. The text has this:
(§2) Current treatment options for malignant gliomas, including surgery, radiation, and chemotherapy, are of limited effectiveness, and novel therapeutic modalities must be explored. Targeting of antineoplastic agents to cancer cells by linking them to a ligand with high affinity for tumour cells should improve tumour growth inhibition and decrease peripheral toxicity ([Schally and Nagy, 1999]). The presence of high affinity receptors for bombesin (BN)-like peptides on a wide variety of tumours prompted us to employ some of our powerful BN/gastrin releasing peptide (GRP) antagonists as carrier mole ...

Assay [5] deals with H-69 human small-cell lung carcinoma. The note with it: ref Kiaris et al, 1999a; cited from earlier work.
Excerpt: as §2

In assay [6] the test system is PC-3 human androgen-independent prostate cancer. The settings on record: ref Plonowski et al, 2000; cited from earlier work.
Excerpt: as §2

[7] abbreviates: RC-3095 200 μg/mouse i.v. 15 min before AN-215 150 nmol kg^-1 days 1, 10, 17.

Entries after “also recorded” stand apart in the source; their conditions may differ.

Usually IC50 stands for the midpoint of a concentration-inhibition curve.

With “Gln-Trp-Ala-Val-Gly-His-Leu-ψ(CH2-NH)-Leu-NH2 [AN-215]”, the IC50 in assay [1] (U-87MG tumour membranes, AN-215 10^-6–10^-12 M, mean±s.e., read-out: IC50, inhibition of specific 125I-[Tyr4]BN binding) was 4 ± 0.1 nM. For the same substance, the “Binding affinity to BN/GRP receptor protein” value in assay [1] (U-87MG tumours) is on record as “high binding affinity”. Further, the “Effect of treatment on binding characteristics of receptors for BN/GRP” value in assay [2] was “did not affect the binding characteristics”. The Tumour doubling time in assay [3] (150 nmol kg^-1 i.v. days 1, 10, 17, 20 days, no pretreatment, control 4.5±0.2) worked out at 6.6 ± 1.0 days. For the same substance, the “Antitumour effect after BN receptor blockade” value in assay [3] (RC-3095 200 μg i.v. 15 min before AN-215 150 nmol kg^-1) is “could be blocked by pretreatment with an excess of a bombesin antagonist; also recorded: non-significant growth inhibition of U-87MG glioblastomas”. For the same substance, in assay [3] (setting [7]), the “Growth inhibition after RC-3095 pretreatment” value turned out to be 22% and the “Tumour doubling time after RC-3095 pretreatment” value worked out at 4.7 ± 02 days. Besides, in assay [4], the “Affinity to BN receptors” value is on record as “high affinity”. Moreover, the “Inhibition of H-69 human small-cell lung carcinoma” value in assay [5] is given as “effectively inhibit”. For the same substance, in assay [6], the “Inhibition of PC-3 human androgen-independent prostate cancer” value is on record as “effectively inhibit”.
